Data published in US12377104B1, “Methods for treating a fatty liver disease” (Madrigal Pharmaceuticals, Inc., priority 2024, dated 2025).

System: NASH patients
Assay: MAESTRO-NAFLD-1 100 mg open label non-cirrhotic NASH arm, 52 weeks
Assay type: in vivo, human
Procedure: The 169 patient, 100 mg open label (OL) arm completed the 52 week study in July 2021.
Eligibility required at least 3 metabolic risk factors (Metabolic syndrome), fibroscan kilopascals (kPa) consistent with ≥F1 fibrosis stage, and MRI-PDFF≥8%. The primary and key secondary endpoints of MAESTRO-NAFLD-1 including safety, relative percent reduction of MRI-PDFF (week 16), LDL cholesterol (LDL-C) (week 24), apolipoprotein B and triglycerides, fibroscan and 52 week endpoints were analyzed in the OL arm.
Mean age was 55.7 (11.5 Standard Deviation (SD)), female 69%, BMI 35.8 (6.0), diabetes 43%, hypertension 62%, dyslipidemia >70%, atherosclerotic cardiovascular disease (ASCVD) score 11.5%; fibroscan (kPa 7.7 (3.6)), and MRI-PDFF 17% (7%). […] Liver volume (LV) was elevated at baseline (2202 cm3 (535)) by […] relative to normal controls and −15% after correction for BMI (Euro J of Radiol 106, 2018, 32-37). […] LV reduction was 2-3 fold greater than predicted by % reduction in MRI-PDFF, a measure of liver fat content (Clin Gastroenterol Hepatol. 2015 13: 561-568); LY-corrected mean MRI-PDFF reduction was −63% (2.4%). […] At week 52, magnetic resonance elastography (MRE) (−0.34, p=0.03); fibroscan controlled attenuation parameter (CAP) (−39 (4.6)) and vibration-controlled transient elastography (VCTE) (−1.87; −20%) (p<0.0001) were reduced relative to baseline.

CC(C)c1cc(Oc2c(Cl)cc(-n3nc(C#N)c(=O)[nH]c3=O)cc2Cl)n[nH]c1=O [Resmetirom, 2-(3,5-dichloro-4-((5-isopropyl-6-oxo-1,6-dihydropyridazin-3-yl)oxy)phenyl)-3,5-dioxo-2,3,4,5-tetrahydro-1,2,4-triazine-6-carbonitrile]
ALT decrease from baseline: −20 IU | AST decrease from baseline: −11 IU | Blood pressure (systolic, diastolic) change: −2 mmHg | GGT decrease from baseline: −25 IU | LDL-C change: −22% | LV reduction greater than predicted by % reduction in MRI-PDFF: 2-3 fold | LV-corrected mean MRI-PDFF reduction: −63% | apolipoprotein-B change: −24% | triglycerides change: −24% | bone mineral density (DEXA) (52 weeks): unchanged | safety (52 weeks): No safety flags | LV change (week 16): −21% | LV change (week 52): −23% | reduction of MRI-PDFF (week 52): −53%
